According to US20130011345A1, “FLAVOR-ENHANCING AMIDE COMPOUNDS” (priority 2011, published 2013):

Experiment: Sensory evaluation of the MSG-IMP umami composition combined with Formulas II and III by a trained sensory panel
Conditions: for Flavor Profile: trained sensory panel; for Effect on umami flavor of the MSG-IMP mixture (summary statement): combined with MSG-IMP mixture, all tested concentrations
Description: The MSG-IMP mixture (0.01% MSG and 0.005% IMP), an umami composition, was combined with Formulas II and III at different concentrations and evaluated by a trained sensory panel.

[1] = Formula concentration 1 ppm in MSG-IMP mixture (0.01% MSG and 0.005% IMP)
[2] = Formula concentration 500 ppb in MSG-IMP mixture (0.01% MSG and 0.005% IMP)

With `C#CC#CCC/C=C/C(=O)NCC(C)CC` (stereo not shown) [Formula II, (E)-N-(2-methylbutyl)nona-2-en-6,8-diynamide] the “Flavor Profile” value [1] was “Increased umami flavor and less greasy”, the “Flavor Profile” value (Formula concentration 5 ppm in MSG-IMP mixture (0.01% MSG and 0.005% IMP)) was “Strong umami enhancement” and the “Flavor Profile” value [2] was “Increased mouth-feel, savory”. The “Effect on umami flavor of the MSG-IMP mixture (summary statement)” value was “enhanced the umami flavor”.
In the case of `C#CC#CCC/C=C\C(=O)NCC(C)CC` (stereo not shown) [Formula III, (Z)-N-(2-methylbutyl)nona-2-en-6,8-diynamide], the “Flavor Profile” value [1] is reported as “Increased mouthfullness, delocalized”, the “Flavor Profile” value [2] is reported as “Increased mouthfullness, delocalized” and the “Effect on umami flavor of the MSG-IMP mixture (summary statement)” value is reported as “enhanced the umami flavor”.
